In brackets after ≈: the same amount, converted by molar mass. Positions of bridges follow the written chain, without caps; N, C: chain ends. Non-standard residues stand in square brackets, D forms with d. Residues, ends and D or L forms follow the SMILES beside them. Chains are numbered I, II in the order given. *: point of attachment. X1 = CC[C@H](C)CCCCC(=O)*; Dab = NCC[C@H](N)C(=O)O
What was measured:
[1] = test system: E. coli D21 and LPS outer core polysaccharide truncated mutant strains; experiment: MIC ratio against LPS-truncated E. coli mutants; format: cell-based; conditions: oligosaccharide-truncated mutants vs wild type D21; increase seen against D21e9 lacking outer core polysaccharides
Text: LPS is a complex glycosylated lipid molecule comprising of a hydrophobic lipid A and core oligosaccharides. The core oligosaccharides are structurally divided into an inner core (lipid A proximal) region and an outer core O-antigen region (Fig. 4a). To ascertain if the alterations in OM polysaccharides modify the barrier penetration and antimicrobial properties of the peptides, we determined the MIC of the peptides against 4 cell-wall defective mutants of E. coli (Fig. 4a). We report the MIC ratio (i.e., MICmut/MICwt) which is the ratio of MIC of peptides/antibiotics against oligosaccharides truncated mutant strains over MIC of wild type (D21) strains. For antibiotics that access intracellular targets through porin pathways or peptides that bind to the lipid A part of the LPS, the MIC ratio is independent of LPS truncation (Fig. 4b). However, antibiotics or peptides which interact with outer or inner core polysaccharides of the LPS are expected to show changes in the MIC ratio.
All the peptide congeners were purchased from M/s. Mimotopes Pty Ltd, Australia. The peptides were used as such and the homogeneity of peptides were confirmed by HPLC. Unless otherwise stated all the chemicals and the antibiotics tested were purchased from Sigma Aldrich (Singapore) Pte Ltd. The florescent probe, BODIPY TR cadaverine (BC) was purchased from Molecular Probes/ Invitrogen (CA, USA). E. coli LPS outer core polysaccharide truncated mutant strains were obtained from CGSG, The Coli Genetic Stock Centre, Yale University, […], USA. Relevant genotype of the strains are, D21 (rfa+); D21e19 (rfa-11) is a deficient mutant in carbohydrates close to the O-antigen part; D21e7 (rfa-1) is deficient in galactose as well as O-antigen; D21f1 (rfa-1, rfa21) lacks phosphate groups in the LPS has glucose and heptose intact; D21f2 (rfa-1, rfa-31) is deficient in heptose of the inner core[57][58].
(§1) MIC of each peptide was determined using the microdilution method in a 96 well microtitre plates (SPL Life Sciences Co., Ltd, Korea). Two-fold serial dilutions of each peptide in Mueller-Hinton Broth (MHB) was prepared from a 1 mg/ml stock solution of the peptide in the same broth, to obtain a final concentration in the range of 0.0976–50 μg/ml in each well. Bacterial suspensions (P. aeruginosa ATCC 27853, P. aeruginosa 4877, P. aeruginosa 23155, K. pneumoniae ATCC 10031 and K. pneumoniae 4299) were prepared by suspending the overnight cultured bacteria in saline and adjusting the inoculum to ~10^8 colony forming units (CFU) per ml. A further 150-fold dilution was then prepared in MHB to achieve a final cell density of 10^5–10^6 CFU/ml. In each well, 100 μl of inoculum was mixed with the equal volume of peptides at their 2× concentration. Positive and negative controls contained 200 μl of inoculum (without any peptide) and broth alone (no peptide/inoculum) respectively. Another negative control in which MHB containing 200 μl of peptide alone in its highest concentration tested (50 μg/ml) was also included to ensure that the optical density measured in the test wells was not due to turbidity of the peptides in solution. The 96 well polystyrene plates were then incubated at 37 °C for 24 h and the optical density at 600 nm (OD600) was measured every 30 min continuously using a TECAN microplate reader (TECAN Infinite 200, Austria). All the experiments were performed in two independent duplicates and the MIC was determined as the lowest peptide concentration in which no visible growth was observed.

[2] = test system: K. pneumoniae 31158; experiment: microbe, parasite or virus in culture; format: cell-based; conditions: for MIC: Klebsiella pneumoniae, 31158, individual peptide/antibiotics, read-out: MIC against K. pneumoniae 31158
[3] = test system: A549 cells infected with P. aeruginosa ATCC 9027; experiment: Intracellular bacterial load in infected A549 cells; format: cell-based; conditions: 24 h; for Intracellular bacterial load: antibiotic alone, gatifloxacin at 2 μg/ml
Procedure: Human lung A549 epithelial cells (ATCC CCL185) were seeded at a density of 10^5 cells/well in a 24 well plate. Next day cells were infected with P. aeroginosa 9027 strains at the multiplicity of infection of 5 for 2 h. Cells were then washed thrice with PBS followed by DMEM to remove the extracellular bacteria. The washed cells were subsequently treated with 200 μg/ml gentamicin to kill any extracellular bacteria. After 1 h cells were washed with PBS again to remove the dead bacteria and the cells were either mixed with antibiotics (Tobramycin or Gatifloxacin) alone or in combination with B2088. After 24 h, the cells were lysed with 0.1% Triton-X100 and the lysates were serially diluted and plated on to a tryptic soy agar (TSA) plates for colony counting.

[4] = test system: P. aeruginosa DR4877/07; experiment: microbe, parasite or virus in culture; conditions: for MIC: Pseudomonas aeruginosa, DR4877/07, 24 h, read-out: MIC of antibiotics
Procedure: as §1, with “Austria).” for “Austria). All the experiments were performed in two independent duplicates and the MIC was determined as the lowest peptide concentration in which no visible growth was observed.”

SMILES | MIC ratio (MICmut/MICwt) [1] | MIC against K. pneumoniae 31158 ([2]; 31158, 24 h) | Intracellular bacterial burden ([3]; B2088 alone at 200 μg/ml) | MIC [4] | MIC [2] | Intracellular bacterial load [3] | Minimum Inhibitory Concentration against P. aeruginosa DR4877/07 ([4]; MHB, 10^5–10^6 CFU/ml, 37 °C, 24 h, two independent duplicates) | MIC of Polymyxin B against this strain ([4]; alone)
CC(C)[C@H](NC(=O)[C@H](CCCCN)NC(=O)[C@H](CCCNC(=N)N)NC(=O)CNC(=O)[C@@H](N)CCCNC(=N)N)C(=O)N[C@H](C(=O)N[C@@H](CCCNC(=N)N)C(=O)N[C@@H](CCCNC(=N)N)C(=O)NCCCC[C@H](NC(=O)[C@H](CCCNC(=N)N)NC(=O)[C@H](CCCNC(=N)N)NC(=O)[C@@H](NC(=O)[C@@H](NC(=O)[C@H](CCCCN)NC(=O)[C@H](CCCNC(=N)N)NC(=O)CNC(=O)[C@@H](N)CCCNC(=N)N)C(C)C)C(C)C)C(=O)N[C@@H](CCCCN)C(=O)O)C(C)C [B2088] (I: H-RGRKVVRRKK-OH / II: H-RGRKVVRR; amide I:9-II:C; N-terminus and C-terminus assumed) | no apparent change | 12.5 µg/mL (≈ 5.46 µM) | did not decrease the intracellular bacterial burden | – | – | – | – | –
COc1c(N2CCNC(C)C2)c(F)cc2c(=O)c(C(=O)O)cn(C3CC3)c12 (stereo not shown) [Gatifloxacin] | – | – | – | 31.2 µg/mL | 1.56 µg/mL (≈ 4.16 µM) | marked decrease in the intracellular bacterial burden | – | –
CC[C@H](C)CCCCC(=O)N[C@@H](CCN)C(=O)N[C@H](C(=O)N[C@@H](CCN)C(=O)N[C@H]1CCNC(=O)[C@H]([C@@H](C)O)NC(=O)[C@H](CCN)NC(=O)[C@H](CCN)NC(=O)[C@H](CC(C)C)NC(=O)[C@@H](Cc2ccccc2)NC(=O)[C@H](CCN)NC1=O)[C@@H](C)O [Polymyxin B, polymyxin B, reference compound] (X1-[Dab]T[Dab][Dab][Dab][dF]L[Dab][Dab]T; lactam 4-C (inferred); N-terminus assumed) | did not show any change | – | – | – | – | – | 1.13 µM | 1.56 µg/mL
NC[C@H]1O[C@H](O[C@H]2[C@H](O)[C@@H](O[C@H]3O[C@H](CO)[C@@H](O)[C@H](N)[C@H]3O)[C@H](N)C[C@@H]2N)[C@H](N)C[C@@H]1O [Tobramycin] | marked increase | – | – | 800 µg/mL | 0.012 µg/mL (≈ 0.0257 µM) | decreased the intracellular bacterial load | – | –

Source: paper PMC4865820, “Branched Peptide, B2088, Disrupts the Supramolecular Organization of Lipopolysaccharides and Sensitizes the Gram-negative Bacteria” (Scientific Reports, 2016)
